The nature of data set [1]: thermal stability of aqueous solution (80 °C, 20 h). It is filed as physicochemical. An excerpt:
Erfindungsgegenstand ist demzufolge eine wäßrige Lösung eines Decaplaninsalzes, ausgewählt aus der Gruppe der Decaplaninacetate, Decaplaninphosphate und Decaplanintartrate. Aus dieser Gruppe sind die Decaplaninacetate besonders bevorzugt. Die erfindungsgemäßen wässrigen Lösungen haben wie bereits erläutert den Vorteil, daß in ihnen das jeweilige Salz in relativ hoher Konzentration vorliegen kann, ohne daß das betreffende Salz ausfällt. […] So zeigt sich z.B. in einer 0,2 %igen wäßrigen Decaplaninmonoacetatlösung bei einer 20 stündigen Temperaturbelastung von 80 °C nur ein Wirkstoffverlust von weniger als 5 %; Vancomycinhydrochlorid hingegen weist bei einer analogen Behandlung nur noch einen Gehalt von etwa 25 % Vancomycinhydrochlorid auf. Die Instabilität des Vancomycins resultiert aus seiner Umwandlung zum sogenannten CDP (vgl. F. Sztaricskai und R. Bognar, Chemistry of the Vancomycin Group of Antibiotics. In:Recent Developments in the Chemistry of Natural Carbon Compounds, Vol. 10, PP 93-201, 1984, Akademiai Kiado, Budapest, 1983). Es ist besonders überraschend, daß die erfindungsgemäßen Decaplaninsalze diese Umwandlung nicht in diesem Ausmaß erleiden. Weiterhin besonders überraschend ist die bereits erwähnte, im Gegensatz zum Vancomycinhydrochlorid stehende gute lokale Verträglichkeit der erfindungsgemäßen wäßrigen Decaplaninsalzlösungen, die ohne besondere Vorsichtsmaßnahmen - wie langsame Injektion - injiziert werden können und auch subcutan verabreichbar sind.

The conditions of data set [2]: commercial hydrochloride form, result in words; cited from earlier work.
The conditions of data set [3]: general knowledge on the commercial form, cited from earlier work.
The next data set in a line: solubility in water. To be noted: result in words.
A further data set can be described thus: isoelectric point. It is filed as physicochemical.
The nature of data set [4]: toxicity and tolerability on injection. Conditions: result in words; for Verträglichkeit: injection.
The conditions of data set [5]: water.
The conditions of data set [6]: in vivo.
Data set [7] in a line: viscosity / gelling of aqueous salt solutions. It is filed as physicochemical. Conditions: result in words. As for the experimental part:
10,2 g des nach Beispiel 3 gewonnenen Gefriertrocknungsproduktes werden in 90 ml Wasser gelöst. Sie ergeben 100 ml einer Flüssigkeit mit einer Viskosität von weniger als 3 Centipoise (cP) bei 20 °C.
10 g des nach Beispiel 3 gewonnenen Produktes werden in 40 ml Wasser aufgenommen und durch Zugabe von […] Eisessig eine Decaplanindiacetatlösung hergestellt. Die Lösung hat einen pH-Wert von 4,2. Ihre Viskosität beträgt weniger als 3 cP bei 20 °C.

Counter-ions that a name gives are not always drawn. Like-named read-outs stand apart in the source and are kept apart here.

Regarding `CN[C@H](CC(C)C)C(=O)N[C@H]1C(=O)N[C@@H](CC(N)=O)C(=O)N[C@H]2C(=O)N[C@H]3C(=O)N[C@H](C(=O)N[C@H](C(=O)O)c4cc(O)cc(O)c4-c4cc3ccc4O)[C@H](O)c3ccc(c(Cl)c3)Oc3cc2cc(c3O[C@@H]2O[C@H](CO)[C@@H](O)[C@H](O)[C@H]2O[C@H]2C[C@](C)(N)[C@H](O)[C@H](C)O2)Oc2ccc(cc2Cl)[C@H]1O` [Vancomycinhydrochlorid], the remaining at 20 h in data set [1] (water, remaining content after analogous treatment (20 h, 80 °C), read-out: Gehalt) is around 25%. Besides, the Löslichkeit result in [2] is given as “relativ wenig löslichen Form”. Besides, the Nebenwirkungen entry in [3] is on record as “lokale Nekrosen, das "red man-Syndrom" sowie Oto- und Nephrotoxizität”. For the same compound, the Verträglichkeit entry in data set [3] (injection) is given as “schlecht verträglich”.
Decaplanin: the “Löslichkeit in Wasser” value in “solubility in water” is “relativ wenig wasserlöslich”. The “isoelektrischer Punkt” value in “isoelectric point” is 8,1 pH. In data set [4], the Verträglichkeit result is recorded as “gute Verträglichkeit” and the Toxizität entry is listed as “sehr geringe Toxizität”.
For the compound Decaplaninacetat, the “Löslichkeit (Konzentration)” value in data set [5] is “ca. 20 Gew.-%”. Also, in data set [1], the “Stabilität der Lösung” value is “stabil”. Also, the Toxizität entry in [6] is reported as “sehr geringe Toxizität”. Besides, the “Gelieren / Viskosität der wäßrigen Lösung” value in data set [7] was “dünnflüssig”.
For the compound Decaplaninmonoacetat, in data set [1] (water, 20 h), the Wirkstoffverlust is reported as below 5%.
As to Decaplaninphosphate, the Toxizität result in data set [4] is recorded as “sehr geringe Toxizität”. Further, the Verträglichkeit entry in data set [6] was “gute Verträglichkeit”.
Turning to Decaplanintartrate, the “Löslichkeit in Wasser” value in the data set “solubility in water” is “gutes Löslichkeitsverhalten”. Besides, in data set [4], the Verträglichkeit result is “gute Verträglichkeit” and the Toxizität result was “sehr geringe Toxizität”.
Regarding Hydrochlorid, the “Löslichkeit in Wasser” value in “solubility in water” is recorded as “nicht ausreichend löslich”. Besides, the “Gelieren / Viskosität der wäßrigen Lösung” value in data set [7] is on record as “zähflüssig”.
